The text below walks through data of PubChem BioAssay (NCI).

Holding throughout (test): NCI tumour cell line growth inhibition, 48 h
Experiment [1] concerns 786-0 renal.
In experiment [2] the test system is CCRF-CEM leukemia.
The subject of experiment [3] is COLO 205 colon.
Experiment [4] deals with HCT-116 colon.
Experiment [5] deals with HCT-15 colon.
Experiment [6] has as its system HOP-62 NSCLC.
For experiment [7], the system named is HT29 colon.
Experiment [8] has as its system MCF7 breast.
Experiment [9] relates to MDA-MB-231 breast.
The subject of experiment [10] is NCI-H522 lung.
In experiment [11] the test system is OVCAR-3 ovarian.
The test system of experiment [12] is OVCAR-5 ovarian.
Experiment [13] deals with OVCAR-8 ovarian.
In experiment [14] the test system is PC-3 prostate.
Experiment [15] has as its system RXF 393 renal.
Experiment [16] has as its system SF-268 CNS.
The test system of experiment [17] is SK-MEL-28 melanoma.
Experiment [18] deals with SR leukemia.
Experiment [19] has as its system UACC-62 melanoma.
Experiment [20] relates to UO-31 renal.

Structures are written as SMILES.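 Cells were grown in 96-well plates and exposed to each compound for 48 hours at five concentrations; endpoints were interpolated linearly between bracketing concentrations, or set to the highest concentration if not reached. At the TGI there is no net growth.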

As for `COc1ccc(NC(=O)C(=O)Cc2nc3ccc(C(=O)c4ccccc4)cc3[nH]c2=O)c([N+](=O)[O-])c1`, the TGI in [1] was above 100 µM; in [2], 61.4 µM; in [3], 40 µM; in [4], above 100 µM; in experiment [5], above 100 µM; in [6], above 100 µM. The TGI in experiment [7] was 35.9 µM; in experiment [8] it was above 100 µM; in experiment [9] it was above 100 µM; in experiment [10], 51.4 µM; in experiment [11], above 100 µM; in experiment [12] it was above 100 µM. Besides, the TGI in [13] is 49 µM; in experiment [14] it was above 100 µM; in experiment [15] it was above 100 µM; in [16], above 100 µM; in [17], above 100 µM; in experiment [18], 51.1 µM. Further, the TGI in experiment [19] stood at 78.5 µM; in experiment [20], 67.6 µM.

Take `c1ccc(C2=C(c3ccccc3)Sc3nnc(CCCCCCCCc4nnc5n4NC(c4ccccc4)=C(c4ccccc4)S5)n3N2)cc1`: the TGI in experiment [1] is above 100 µM; in experiment [2], 72.4 µM; in experiment [3], above 100 µM; in [4], above 100 µM; in experiment [5] it was above 100 µM; in [6], above 100 µM. Besides, the TGI in experiment [7], in experiment [8], in [9], in experiment [10], in experiment [11] and in [12] was above 100 µM in each case. Further, the TGI in experiment [13], in [14], in [15], in [16], in [17] and in experiment [18] was above 100 µM each time. Also, the TGI in [19] and in experiment [20] was above 100 µM throughout.

As to `CCOC(=O)/C=C\C(C#N)(C#N)N=Cc1ccsc1`, the TGI in [1] is 5.01 µM; in experiment [2], 1.02 µM; in [3] it was 3.4 µM; in experiment [4], 4.72 µM; in [5], 10.1 µM; in [6], 36.9 µM. For the same compound, the TGI was 28.1 µM in [7]; 8 µM in experiment [8]; 30.9 µM in [9]; 2.83 µM in experiment [10]; 6.42 µM in [11]; 33.1 µM in experiment [12]. For the same compound, the TGI in experiment [13] was 14.6 µM; in [14], 22.7 µM; in [15], 5.46 µM; in [16] it was 22 µM; in experiment [17], 6.89 µM; in experiment [18], 18.1 µM. The values for the TGI in experiment [19] and in experiment [20] were 32 µM and 5.71 µM, respectively.

As to `CCCCN(C)C(=O)C1=C(C)NC(C)=C(C(=O)N(C)CCCC)C1`, the TGI in experiment [1], in experiment [2], in experiment [3], in experiment [4], in [5] and in experiment [6] was above 100 µM in each case. The TGI in experiment [7], in experiment [8], in experiment [9], in experiment [10], in experiment [11] and in experiment [12] was above 100 µM in each case. The TGI in experiment [13], in experiment [14], in [15], in experiment [16], in experiment [17] and in experiment [18] was above 100 µM in each case. The TGI in experiment [19] and in experiment [20] was above 100 µM each time.

In the case of `Cc1ccc(S(=O)(=O)N2CC(CCN)c3ccccc32)cc1` (stereo not given), the TGI is 14.7 µM in experiment [1]; above 100 µM in [2]; 24.3 µM in experiment [3]; 25.6 µM in [4]; above 100 µM in experiment [5]; above 29.1 µM in [6]. The TGI in [7] is 8.14 µM; in experiment [8] it was 29.8 µM; in [9], 29.9 µM; in [10] it was 14.6 µM; in [11], 26.2 µM; in [12], 24 µM. Also, the TGI in experiment [13] is 27 µM; in experiment [14] it was 29 µM; in experiment [15] it was 12.6 µM; in [16] it was 23.8 µM; in experiment [17], 34.7 µM; in experiment [18] it was above 100 µM. In addition, the values for the TGI in [19] and in experiment [20] were 11.7 µM and 27.4 µM, respectively.

Take `C#CCNC(=O)NC(CCCCNC(=O)OCc1ccccc1)C(=O)OCc1ccccc1` (stereo not given): the TGI in experiment [1] was above 100 µM; in [2] it was above 100 µM; in experiment [3], 46.9 µM; in [4], above 100 µM; in experiment [5], above 100 µM; in [6], above 100 µM. The TGI in experiment [7] is above 56.2 µM; in experiment [8], above 100 µM; in experiment [9], above 58.7 µM; in experiment [10], 17.1 µM; in [11], above 100 µM; in [12], above 100 µM. In addition, the TGI in [13] is above 100 µM; in experiment [14], above 100 µM; in experiment [15], 43.1 µM; in experiment [16] it was above 100 µM; in [17], 38.5 µM; in experiment [18] it was above 100 µM. Moreover, the TGI in [19] is 33.6 µM; in [20], 44.6 µM.

In the case of `COC1=C2CC(C)CC(OC)C(OC(=O)CCCN)C(C)/C=C(\C)C(OC(N)=O)C(OC)/C=C\C=C(/C)C(=O)NC(=CC1=O)C2=O` (stereo not given), the TGI in experiment [1] stood at 18.1 µM; in experiment [2], 3.59 µM; in experiment [3], 9.48 µM; in [4], 15.9 µM; in experiment [5], 14.5 µM; in experiment [6], 32 µM. In addition, the TGI in [7] was found to be 13.2 µM; in experiment [8] it was 13.2 µM; in [9], 36.1 µM; in experiment [10] it was 1.96 µM; in [11] it was 16.8 µM; in experiment [12] it was 23.8 µM. Besides, the TGI was 21.6 µM in experiment [13]; 22.4 µM in experiment [14]; 25.6 µM in [15]; 24.6 µM in experiment [16]; 23.7 µM in experiment [17]; 21.5 µM in [18]. In addition, the values for the TGI in experiment [19] and in experiment [20] were 18.7 µM and 23.1 µM, respectively.
